Measurements reported in publication PMC9481570, “A small molecule antagonist of SMN disrupts the interaction between SMN and RNAP II” (Nature Communications, 2022).
“And” between values parts separate entries of the source, which are not always exact repeats. Identical values can stand only once. Like-named read-outs stand apart in the source and are kept apart here.

Key:
SMN Tudor domain = biological target: T1, SMN Tudor domain (Homo sapiens, UniProt Q16637); experiment: ITC binding to Tudor domain of SMN
T1 construct: SMN (aa 82–147); His (N, cleaved yes); made in house; host or cells: E. coli BL21 (DE3) Codon plus RIL
Description: (§1) The coding DNA fragments of following Tudor domains were cloned into pET28-MHL vector: SMN (aa 82–147), UHRF1 (aa 126–285), SMNDC1 (aa 53–130), TDRD3 (aa 554–611), SND1 (aa 650–910), TDRD2 (aa 327–420), FXR1 (aa 2–132), PHF1 (aa 28–87), SGF29 (aa 115–293), JMJD2A (aa 897–1101), 53BP1 (aa 1483–1606), SETDB1 (aa 190–410), LBR (aa 1–67), ZGPAT (aa 120–271). The coding regions of chromodomain of CBX7 (aa 8–62), PWWP domain of DNMT3A (aa 275–417), WD40 repeats of WDR5 (aa 24–334) and CW domain of ZCWPW2 (aa 21–78) were also subcloned into pET28-MHL vector to generate N-terminally His-tagged fusion protein. The MBT repeats of L3MBTL1 (aa 200–522) and L3MBTL2 (aa 170–625) were subcloned into pET28GST-LIC vector to generate N-terminally GST-His-tagged fusion protein. All the plasmids were generated by ligase independent cloning (Vazyme Biotech, C112 or ABclonal Technology, RK21020). […] The proteins were further purified by Superdex75 or Superdex200 gel-filtration column (GE Healthcare) in a buffer containing 20 mM Tris-HCl, pH 7.5, 150 mM NaCl and 1 mM DTT. For crystallization experiments, purified proteins were concentrated to 18 mg/mL for SMN, 23 mg/mL for UHRF1 and 10 mg/mL for TDRD3 in the gel-filtration buffer. All the mutations were introduced with the QuikChange II XL site-directed mutagenesis kit (Stratagene, 200522) and confirmed by DNA sequencing. Mutant proteins were also expressed in E. coli BL21 (DE3) Codon plus RIL and purified using the same procedures described above. The molecular weight of all protein samples was measured by mass spectrometry.
(§2) For the ITC measurement, the concentrated proteins were diluted into 20 mM Tris-HCl, pH 7.5, 150 mM NaCl (ITC buffer); the lyophilized compounds were dissolved in the same buffer, and the pH value was adjusted by adding 2 M NaOH or 2 M HCl. The compounds that could not be dissolved in the ITC buffer were dissolved in DMSO with the accessible highest concentration. Compound concentrations were calculated from the mass and the volume of the solvent. For the ITC assay with compound dissolved in DMSO, the protein was diluted by ITC buffer containing same final concentration of DMSO. All measurements were performed in duplicate at 25 °C, using a VP-ITC (MicroCal, Inc.), an iTC-200 (MicroCal, Inc.), or a Nano-ITC (TA, Inc.) microcalorimeter. The protein with a concentration of 50–100 μM was placed in the cell chamber, and the compounds with a concentration of 0.5–2 mM in syringe was injected in 25, 20, or 20 successive injections with a spacing of 180, 150, or 120 s for VP-ITC, iTC-200, or Nano-ITC, respectively, as previously described[30]–[32]. iTC-200 or Nano-ITC data were consistent with those from the VP-ITC instrument, based on ITC results of SMN-compound 1 detected by using all the instruments. Control experiments were performed under identical conditions to determine the heat signals that arise from injection of the compounds into the buffer. Data were fitted using the single-site binding model within the Origin software 7.0 package (MicroCal, Inc.) or the independent model within the Nano-Analyze software package (TA, Inc.).

[1] = biological target: T2, UHRF1 tandem Tudor domain (TTD) (Homo sapiens, UniProt Q96T88); experiment: ITC binding to tandem Tudor domain of UHRF1
T2 construct: UHRF1 (aa 126–285); His (N, cleaved yes); made in house; host or cells: E. coli BL21 (DE3) Codon plus RIL
T2 sequence (Q96T88 126-285): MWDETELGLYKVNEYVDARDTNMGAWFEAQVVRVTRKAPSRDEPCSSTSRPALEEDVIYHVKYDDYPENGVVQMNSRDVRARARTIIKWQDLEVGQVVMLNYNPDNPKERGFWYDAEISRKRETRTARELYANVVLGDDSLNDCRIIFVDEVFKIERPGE
Description: as §1, §2

[2] = ITC, Tudor domain of SMN wild type, 25 °C, read-out: Kd (SMN)

T1 sequence (Q16637 82-147): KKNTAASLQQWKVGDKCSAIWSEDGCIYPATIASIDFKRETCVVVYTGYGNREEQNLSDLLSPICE

Compound	Kd (SMN Tudor domain; [2]) [µM]	Kd (SMN Tudor domain; Supplementary Fig. 11a, iTC-200, read-out: Kd, ITC binding curve, SMN) [µM]	selectivity of SMN and SMNDC1 Tudor domains over TDRD3 (SMN Tudor domain; from ITC Kd)	selectivity over other tested methyllysine or methylarginine binding domains (SMN Tudor domain; from ITC Kd) [fold]	SMN binds more tightly than its physiological ligands (SMN Tudor domain; versus symmetric dimethylarginine or R1810me2s-POLR2A)	Kd [1]	Kd (UHRF1) [1]
Cn1c2c(c(=N)c3c1CCC3)CCC2 [Compound 1, 4-methyl-2,3,4,5,6,7-hexahydrodicyclopenta[b,e]pyridin-8(1H)-imine]	2.6 ± 0.1	3.9 ± 0.5	~ 4 fold	> 4	60–180 fold	~16 µM and 16 µM	
CCCn1c2c(c(=N)c3c1CCC3)CCC2 [Compound 2, 4-propyl-2,3,4,5,6,7-hexahydrodicyclopenta[b,e]pyridin-8(1H)-imine]	9.3 ± 0.6						No binding
